Test results: ChEMBL document CHEMBL1201862, “PubChem BioAssay data set” (2004)
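The compound was tested at five concentrations on cells cultured in 96-well plates, with a 48-hour exposure period. GI50: concentration for 50% inhibition of growth.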 Calls of active or inactive are those of the source. Cut-off read from the data, not from the text of the source: active = GI50 up to about 1.1 µM and inactive = higher.

Columns and labels:
Experiment in all cases: inhibition of tumour cell growth, NCI panel, 48 h
UACC-62 = system: UACC-62
SNB-75 = system: SNB-75
HCT-15 = system: HCT-15
HT-29 = system: HT-29
Malme-3M = system: Malme-3M
SF-539 = system: SF-539
UACC-257 = system: UACC-257
HCT-116 = system: HCT-116
SK-MEL-5 = system: SK-MEL-5
NCI-H460 = system: NCI-H460
LOX IMVI = system: LOX IMVI
SNB-19 = system: SNB-19
786-0 = system: 786-0
EKVX = system: EKVX
OVCAR-3 = system: OVCAR-3
HCC 2998 = system: HCC 2998
HOP-92 = system: HOP-92

SMILES | GI50 (UACC-62) | GI50 (SNB-75) | GI50 (HCT-15) [µM] | GI50 (HT-29) | GI50 (Malme-3M) | GI50 (SF-539) | GI50 (UACC-257) | GI50 (HCT-116) | GI50 (SK-MEL-5) | GI50 (NCI-H460) | GI50 (LOX IMVI) | GI50 (SNB-19) | GI50 (786-0) | GI50 (EKVX) | GI50 (OVCAR-3) | GI50 (HCC 2998) | GI50 (HOP-92)
[N-]=[N+]=Nc1ccc(CCN2CCN(c3cccc(C(F)(F)F)c3)CC2)cc1I | > 100 µM (inactive) | 41.7 µM (inactive) | 25.2 | 29.4 µM (inactive) | > 100 µM (inactive) | > 100 µM (inactive) | 96.8 µM (inactive) | 71.1 µM (inactive) | 65.8 µM (inactive) | 62.4 µM (inactive) | > 100 µM (inactive) | > 100 µM (inactive) | > 100 µM (inactive) | > 100 µM (inactive) | 78.9 µM (inactive) |  | 
COc1ccccc1/N=N/C(C(=O)c1ccccc1)C(=O)c1ccccc1 | 13.2 µM (inactive) | 19.9 µM (inactive) | 14.9 | 25.9 µM (inactive) | 25.4 µM (inactive) | 26.2 µM (inactive) | 28.4 µM (inactive) | 11.5 µM (inactive) | 18 µM (inactive) | 19.6 µM (inactive) | 17.9 µM (inactive) | 17.2 µM (inactive) | 24.4 µM (inactive) | 21.4 µM (inactive) | 22.5 µM (inactive) | 27.1 µM (inactive) | 
CCOC(=O)[C@H](CCCNC(=O)OC(C)(C)C)NCc1ccc(OC)c(OC)c1 | > 100 µM (inactive) | > 100 µM (inactive) |  | > 100 µM (inactive) | > 100 µM (inactive) | > 100 µM (inactive) | > 100 µM (inactive) | > 100 µM (inactive) | > 100 µM (inactive) |  | > 100 µM (inactive) | > 100 µM (inactive) | > 100 µM (inactive) | > 100 µM (inactive) | > 100 µM (inactive) | > 100 µM (inactive) | > 100 µM (inactive)
CC(=O)O[C@H]1CC[C@@]2(C)C(=C/C(=N\[N+](=O)[O-])[C@H]3C4CCC([C@H](C)CCCC(C)C)[C@@]4(C)CCC32)C1 (stereo partly specified) | > 100 µM (inactive) | > 100 µM (inactive) | > 100 | > 100 µM (inactive) | > 100 µM (inactive) | > 100 µM (inactive) | > 100 µM (inactive) | > 100 µM (inactive) | > 100 µM (inactive) | > 100 µM (inactive) | > 100 µM (inactive) | > 100 µM (inactive) | > 100 µM (inactive) | > 100 µM (inactive) | > 100 µM (inactive) |  | > 100 µM (inactive)
CCOC(=O)NC(=O)c1cn(-c2ccc(CCOC(=O)NCCCCCCNC(=O)OCCc3ccc(-n4c(=O)[nH]cc(C(=O)NC(=O)OCC)c4=O)cc3)cc2)c(=O)[nH]c1=O | 24.1 µM (inactive) | 27.5 µM (inactive) | > 100 | > 100 µM (inactive) | 50 µM (inactive) | 23.7 µM (inactive) | > 72.8 µM (inactive) | > 100 µM (inactive) | 78.7 µM (inactive) | 28.8 µM (inactive) | 56.6 µM (inactive) | 23.2 µM (inactive) | 48.5 µM (inactive) | 53.2 µM (inactive) | > 100 µM (inactive) | > 100 µM (inactive) | > 72.4 µM (inactive)
Cn1nc(-c2ccccc2)c(C(=O)/C=C/c2ccccc2)c(N2CCCCC2)c1=O | 15.9 µM (inactive) |  | 17.7 | 11.7 µM (inactive) |  | 41.5 µM (inactive) |  | 4.91 µM (inactive) | 17.5 µM (inactive) | 7.67 µM (inactive) | 11.7 µM (inactive) | > 100 µM (inactive) | 12.5 µM (inactive) | > 100 µM (inactive) |  |  | 7.31 µM (inactive)
CCCCc1c2c(nc3c1CCC/C3=C\c1ccccc1)/C(=C/c1ccccc1)CCC2 | > 100 µM (inactive) |  | > 100 | > 100 µM (inactive) | > 100 µM (inactive) | > 100 µM (inactive) | > 100 µM (inactive) | > 100 µM (inactive) | > 100 µM (inactive) | > 100 µM (inactive) | > 100 µM (inactive) | > 100 µM (inactive) | > 100 µM (inactive) | > 100 µM (inactive) | > 100 µM (inactive) | > 100 µM (inactive) | 
CCOC(=O)C1(C)C2=CC=C(O2)C(C)(C)C2=CC=C(O2)C(C)(C)C2=CC=C(O2)C(C)(C)C2=CC=C1O2 |  |  | > 100 | > 100 µM (inactive) | > 100 µM (inactive) | > 100 µM (inactive) | > 100 µM (inactive) | 46.9 µM (inactive) |  | > 100 µM (inactive) | > 100 µM (inactive) | > 100 µM (inactive) | > 100 µM (inactive) | > 100 µM (inactive) |  | > 100 µM (inactive) | 36.5 µM (inactive)
C#CCN(C(=O)C(F)(F)F)c1ccc(C(=O)c2ccc(N(CC#C)C(=O)C(F)(F)F)cc2)cc1 | 21.6 µM (inactive) | 43.4 µM (inactive) | 24.6 | 19.5 µM (inactive) | 32.6 µM (inactive) | 37.8 µM (inactive) | 26.4 µM (inactive) | 34.5 µM (inactive) | > 100 µM (inactive) | 33.8 µM (inactive) |  | 46.5 µM (inactive) | 34.1 µM (inactive) | 61 µM (inactive) | 33.1 µM (inactive) | 40.9 µM (inactive) | 34.8 µM (inactive)
COc1ccc2c(c1)c1c3n2CCNN=C3CCC1 | 60.4 µM (inactive) | 48.6 µM (inactive) | > 70.1 | > 100 µM (inactive) | > 100 µM (inactive) | > 77.4 µM (inactive) | > 53.8 µM (inactive) | 99.5 µM (inactive) | > 100 µM (inactive) | > 100 µM (inactive) | > 64.6 µM (inactive) | > 100 µM (inactive) | > 100 µM (inactive) | > 100 µM (inactive) | > 100 µM (inactive) | > 100 µM (inactive) | > 49.2 µM (inactive)
O=C(O)c1ccc(S(=O)(=O)c2ccccc2)c([N+](=O)[O-])c1 | > 100 µM (inactive) | > 100 µM (inactive) | 93.1 | > 100 µM (inactive) | > 100 µM (inactive) | > 100 µM (inactive) | > 100 µM (inactive) | > 100 µM (inactive) | > 100 µM (inactive) | > 100 µM (inactive) | > 100 µM (inactive) | > 100 µM (inactive) | > 100 µM (inactive) | > 100 µM (inactive) | > 100 µM (inactive) | > 100 µM (inactive) | > 100 µM (inactive)
CCOC(=O)C1=C(Nc2ccc(Br)cc2)OC/C1=N\NC(=O)c1ccccc1O | 2.67 µM (inactive) |  | 11.7 | 40.4 µM (inactive) | 35.4 µM (inactive) | 11.2 µM (inactive) | 23 µM (inactive) | 10.1 µM (inactive) | 49.7 µM (inactive) | 12.9 µM (inactive) | 5.37 µM (inactive) | 10.9 µM (inactive) | 15 µM (inactive) | 18.8 µM (inactive) | 21.4 µM (inactive) | 20.3 µM (inactive) | 
O=C(NC1C=Nc2ccccc2NC1=O)c1ccccc1Cl (stereo unspecified) | 33.6 µM (inactive) | 50 µM (inactive) | 33.7 | 55.7 µM (inactive) | 58.1 µM (inactive) | > 100 µM (inactive) | 38.5 µM (inactive) | 39.1 µM (inactive) | 45.8 µM (inactive) | 44 µM (inactive) | 18.2 µM (inactive) | > 100 µM (inactive) | 56 µM (inactive) | 74.8 µM (inactive) | 28.4 µM (inactive) | 56.4 µM (inactive) | 31.4 µM (inactive)
O=C(CC(=O)Nc1ccc(Cl)cc1)NNCC(=O)Nc1nc(-c2ccccc2)cs1 | 47.5 µM (inactive) | > 100 µM (inactive) |  | > 100 µM (inactive) |  | > 100 µM (inactive) |  | > 100 µM (inactive) | > 100 µM (inactive) | > 100 µM (inactive) | > 100 µM (inactive) | > 100 µM (inactive) | > 100 µM (inactive) | > 100 µM (inactive) | > 100 µM (inactive) | > 100 µM (inactive) | 
C[Si](C)(C)C(CCCCSc1ccccc1)(Sc1ccccc1)Sc1ccccc1 | 36.1 µM (inactive) | > 100 µM (inactive) | > 100 |  |  | > 100 µM (inactive) | > 100 µM (inactive) | > 100 µM (inactive) | > 100 µM (inactive) | > 100 µM (inactive) | > 100 µM (inactive) | > 100 µM (inactive) | > 100 µM (inactive) | > 100 µM (inactive) |  | > 100 µM (inactive) | 73.6 µM (inactive)
CC(=O)NC(CC(C)C)C(=O)NC(Cc1ccccc1)C(=S)N1CCCC1 (stereo unspecified) | > 100 µM (inactive) | > 100 µM (inactive) | > 100 | > 100 µM (inactive) | > 100 µM (inactive) |  | > 100 µM (inactive) |  | > 100 µM (inactive) | > 100 µM (inactive) | > 100 µM (inactive) | > 100 µM (inactive) | > 100 µM (inactive) | > 100 µM (inactive) | > 100 µM (inactive) | > 100 µM (inactive) | > 100 µM (inactive)
CC(C)(C)c1ccc(OC2CCO2)cc1 (stereo unspecified) | 24 µM (inactive) | 53.8 µM (inactive) | 20 | 23.1 µM (inactive) | 67 µM (inactive) | 37.6 µM (inactive) | 31.6 µM (inactive) | 21 µM (inactive) | 36.3 µM (inactive) | 24.3 µM (inactive) |  | 52.2 µM (inactive) | 28.7 µM (inactive) | 35.1 µM (inactive) | 34.5 µM (inactive) | 27.5 µM (inactive) | 35.4 µM (inactive)
COC(=O)C1C=CCC2CCCCC21N1CCCC1 (stereo unspecified) | > 100 µM (inactive) | 44 µM (inactive) | > 100 | 48.1 µM (inactive) | > 100 µM (inactive) | > 100 µM (inactive) | > 100 µM (inactive) | 46.1 µM (inactive) | 84.3 µM (inactive) | 55.2 µM (inactive) | > 100 µM (inactive) | 82.2 µM (inactive) | > 100 µM (inactive) | > 100 µM (inactive) | 49.4 µM (inactive) | 69.2 µM (inactive) | 34 µM (inactive)
